Data on four molecules can be found in patent US8609342B2, “Reporter gene assay method” (Otsuka Pharmaceutical Co., Ltd., priority 2001, dated 2013).

One series addresses T1, androgen receptor (Homo sapiens, UniProt P10275).
T1 construct: expressed in transfected cells; host or cells: CHO-K1 cells, transiently transfected with pZeoSV2-AR, pIND ARE-B10 and pcDNA-EGFP
T1 sequence (P10275 1-920): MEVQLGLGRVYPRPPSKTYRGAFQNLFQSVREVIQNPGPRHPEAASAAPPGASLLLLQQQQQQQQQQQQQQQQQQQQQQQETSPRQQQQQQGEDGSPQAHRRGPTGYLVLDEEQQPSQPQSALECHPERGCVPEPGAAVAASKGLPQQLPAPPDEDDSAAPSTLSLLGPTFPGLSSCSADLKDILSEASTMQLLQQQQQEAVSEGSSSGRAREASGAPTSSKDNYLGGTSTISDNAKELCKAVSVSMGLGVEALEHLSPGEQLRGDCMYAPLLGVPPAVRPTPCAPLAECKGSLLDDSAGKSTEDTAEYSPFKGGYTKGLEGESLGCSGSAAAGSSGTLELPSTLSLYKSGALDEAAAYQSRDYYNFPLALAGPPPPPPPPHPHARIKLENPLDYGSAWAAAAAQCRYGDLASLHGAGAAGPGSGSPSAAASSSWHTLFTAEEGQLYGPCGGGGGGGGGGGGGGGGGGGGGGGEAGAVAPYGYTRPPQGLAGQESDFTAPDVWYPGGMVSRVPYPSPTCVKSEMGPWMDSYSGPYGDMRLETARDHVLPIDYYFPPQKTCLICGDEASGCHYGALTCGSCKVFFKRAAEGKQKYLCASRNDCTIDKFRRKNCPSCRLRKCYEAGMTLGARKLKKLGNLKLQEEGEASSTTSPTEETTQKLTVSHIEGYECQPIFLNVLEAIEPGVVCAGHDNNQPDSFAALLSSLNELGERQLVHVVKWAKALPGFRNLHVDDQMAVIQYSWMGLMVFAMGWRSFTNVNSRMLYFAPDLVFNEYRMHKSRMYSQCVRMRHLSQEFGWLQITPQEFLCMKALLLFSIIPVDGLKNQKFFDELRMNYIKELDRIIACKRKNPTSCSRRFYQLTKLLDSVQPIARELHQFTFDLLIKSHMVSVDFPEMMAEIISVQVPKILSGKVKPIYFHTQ
The experiment in a line: Reporter gene assay for androgen receptor antagonist detection (luciferase activity). The series is classed as cell-based. The settings on record: for antagonistic activity against the androgen receptor (judgment): judged from luciferase activity with EGFP activity as indication of cytotoxicity. The method, then: (§1) First, each test substance is dissolved in DMSO to a concentration of 10^−3 M, and the solution was 10-fold diluted stepwise (serial dilution) to give diluted test sample solutions having a test substance concentration of 10^−3 M to 10^−9 M. Then, each diluted sample solution was 100-fold diluted using a solution prepared by adding 5×10^−9 M) of 5α-dehydrotestosterone to DEMEM/F-12 medium (Gibco) (the test substance concentration becoming 10^−5 M to 10^−11 M).
(§2) CHO-K1 cells were developed on a 96-well plate to a size of about 8000 cells/84 μL of medium per well.
(§3) Separately, a solution for transfection was prepared by diluting 1 ng of pZeoSV-2-AR (prepared above in (1)), 50 ng of pIND ARE-B10 (prepared above in (2)) and 4 ng of pcDNA-EGFP (prepared above in (3)) with 6.25 μL of DMEM/F-12 medium and adding 0.15 μL of FuGENE6™ (Roche) to the dilution.
(§4) On the day after the above development, 6 μL/well of the solution for transfection was added to each well for transfection of the cells in each well (the cell culture fluid volume in each well being about 90 μL). Three hours later, each of serial 10-fold dilutions of each test sample (generally 10^−5 M to 10^−11 M) as prepared using the above-prepared medium (DMEM/F-12) supplemented with 5×10^−9 M of 5a-dehydrotestosterone was added in 10 μL portions, and cultivation was continued at room temperature (the final test substance concentrations: 10^−6 M to 10^−12 M).
(§5) In FIGS. 5 and 6, the ordinate denotes the cell survival rate (%) (the relative EGFP fluorescence intensity value at each test substance concentration as determined by taking the EGFP fluorescence intensity value measured without addition of the test substance as 100; shown by curve (1)) as well as the luciferase activity percentage (shown by curve (2)). The abscissa denotes the test substance concentration (M).
On the technique in general: A reporter such as luciferase makes a cellular process visible.

The test system of series [1] is CHO-K1 cells. Type of series: cell-based, hamster. As for the experimental part:
as §1, §2, §3, §4
At 24 hours after addition of the serial dilutions of the test sample, the GFP fluorescence intensity in each well was measured at the excitation wavelength of 485 nm and fluorescence wavelength of 535 nm using Berthord's ARVO.
as §5

The subject of series [2] is CHO-K1 cells. The experiment in a line: MTT assay of CHO-K1 cells with pGL3-Control alone, in the presence of DMSO (comparison). The series is classed as cell-based, hamster. Particulars: 24 hours of culture with DMSO; relative to no DMSO = 100. As for the experimental part:
For comparison, the following MTT assay and AlamarBlue assay were carried out using the respective assay kits. Thus, CHO-K1 cells with pGL3-Control alone introduced therein were used in lieu of the above-prepared cells, DMSO was added to each well to the same concentration as mentioned above and, after 24 hours of culture, the MTT assay was carried out. The MTT measurement was performed as indicated in the manual attached to the product.
(§6) In FIG. 4, the ordinate denotes the relative survival rate (%) (the relative measurement result value at each DMSO concentration with the measurement result in each test carried out without addition of DMSO being taken as 100), and the abscissa denotes the DMSO concentration (%).
Background: Tetrazolium assays rely on reduction of a dye to a coloured formazan, in cell work by metabolically active cells.

Series [3] concerns CHO-K1 cells. The series is classed as cell-based. The settings on record: Chinese hamster, 24 h. The method, then:
CHO-K1 cells (cells deposited with ATCC) were developed on a 96-well plate (8000 cells/well). On the next day, transfection was carried in each well with 50 ng/well of pGL3-Control (retaining the SV40 promoter and containing the luciferase gene; Promega) and 4 ng/well of pcDNA-EGFP using 0.15 μL of FuGENE6™ (Roche) (at room temperature).
To each well of the cells of the invention as prepared as described above under (4), 3 hours after transfection, DMSO was added to a final concentration of 0.125, 0.25, 1, 2, 4 or 10%.
After 24 hours following the addition of DMSO, the fluorescence intensity of EGFP expressed in each well was measured using Berthord's measuring apparatus ARVO. Immediately thereafter, the luciferase activity was measured using Steady-Glo™ (Promega) as a substrate and using Berthord's measuring apparatus ARVO.
as §6

Take `O=[N+]([O-])c1ccc(Oc2c(Cl)cc(Cl)cc2Cl)cc1` [CNP, chloronirophen]: the “antagonistic activity against the androgen receptor (judgment)” value on androgen receptor is recorded as “has an antagonistic activity against the androgen receptor”. The cytotoxic effect entry with CHO-K1 cells [1] is “any cytotoxic effect will not manifest itself”.
With `C[S+](C)[O-]` [DMSO, dimethyl sulfoxide], in the series with CHO-K1 cells [2], the “DMSO concentration at which a decrease in MTT activity is first observed” value is recorded as no less than 4%. The “DMSO concentration from which decreases in luciferase activity are observed” value in the series with CHO-K1 cells [3] was “about 0.25%”.
As for `CC(=O)O[C@]1(C(C)=O)CC[C@H]2[C@@H]3C=C(Cl)C4=CC(=O)[C@@H]5C[C@@H]5[C@]4(C)[C@H]3CC[C@@]21C` [cyproterone acetate, Cyproterone acetate], in the series with CHO-K1 cells [1], the cytotoxic effect result was “no cytotoxic effect was observed”. In addition, the “EGFP activity (cell survival rate)” value in the series with CHO-K1 cells [1] (Chinese hamster, 24 h) was roughly 100%.
For the molecule `CC1(C)CNC(=NN=C(/C=C/c2ccc(C(F)(F)F)cc2)/C=C/c2ccc(C(F)(F)F)cc2)NC1` [hydramethylnone, Hydramethylnone], the “antagonistic activity against the androgen receptor (judgment)” value on androgen receptor is reported as “no antagonistic activity”. At androgen receptor (with 5×10^−9 M 5α-dehydrotestosterone, 24 hours after addition of test substance), the luciferase activity result was “decreases in luciferase activity were due to cytotoxicity”.
